# From patent US20140039031A1, “PHARMACEUTICAL FORMULATIONS OF ACETYL-11-KETO-B-BOSWELLIC ACID, DIINDOLYLMETHANE, AND CURCUMIN FOR PHARMACEUTICAL APPLICATIONS” (Dispersol Technologies. LLC, priority 2011, published 2014)
# How the values were obtained:
# [1] = Solubility enhancement of AKBA by surfactants (UV-Visible); format: physicochemical; settings: pH 6.8 phosphate buffer; 100 mg AKBA in 10 mL; shaken at least 72 hours at 37° C.; 0.20 micron filter
# Method: Evaluation of Solubility Enhancement Capability of Surfactants for Solubilizing AKBA.
# 100 mg of AKBA was placed in a 10 mL cuvette, followed by the desired amount of surfactant to be studied to give the desired ratio of materials. Powder surfactants were measured directly into the cuvette in the amounts of 10 mg, 25 mg and 50 mg. Liquid surfactants were added by making a solution of 1.25 gm of surfactant in 250 ml of buffer, and then adding 2 ml, 5 ml, or 10 ml of the buffer solution to add 10 mg, 25 mg and 50 mg of the surfactant. A pH 6.8 phosphate buffer was added as needed to bring the volume up to 10 mL. After all material was added to the cuvette, the cuvette was sealed, sonicated for 2 hours on two separate occasions and then shaken for at least 72 hours at 37° C. The resulting material was filtered through a 0.20 micron filter and analyzed by UV-Visible spectroscopy to determine the AKBA content.
# [2] = Solubility enhancement of AKBA by polymer carriers (thermal binders) (UV-Visible); format: physicochemical; settings: pH 6.8 phosphate buffer; 20 mg AKBA in 10 mL; shaken at least 72 hours at 37° C.; 0.45 micron filter
# Method: Evaluation of Solubility Enhancement Capability of Polymer Carriers (Thermal Binders) for Solubilizing AKBA.
# 20 mg of AKBA was placed in a 10 mL cuvette, followed by the desired amount of polymer carriers to be studied to give the desired ratio of materials. A pH 6.8 phosphate buffer was added as needed to bring the volume up to 10 mL. After all material was added to the cuvette, the cuvette was sealed, sonicated for 2 hours on two separate occasions and then shaken for at least 72 hours at 37° C. The resulting material was filtered through a 0.45 micron filter and analyzed by UV-Visible spectroscopy to determine the AKBA content.
# [3] = Solubility enhancement of AKBA by combination of polymer carriers and surfactants (UV-Visible); format: physicochemical; settings: pH 6.8 phosphate buffer; 20 mg AKBA in 10 mL; shaken at least 72 hours at 37° C.; 0.45 micron filter
# Method: Evaluation of Solubility Enhancement Capability of the Combination of Polymer Carriers (Thermal Binders) and Surfactants for Solubilizing AKBA.
# 20 mg of AKBA was placed in a 10 mL cuvette, followed by the desired amount of polymer carriers and/or surfactants to be studied to give the desired ratio of materials. A pH 6.8 phosphate buffer was added as needed to bring the volume up to 10 mL. […] The resulting material was filtered through a 0.45 micron filter and analyzed by UV-Visible spectroscopy to determine the AKBA content.
# [4] = Dissolution testing under non-sink conditions (USP XXIX method A enteric dissolution test); format: physicochemical; settings: pH 6.8 buffer, read from FIG. 6
# Method: Dissolution tests were performed with a dissolution apparatus (VK 7000 Dissolution Tester with a VK 8000 Autosampler). The testing was carried out according to a published method (USP XXIX method A enteric dissolution test); non-sink conditions were maintained throughout the testing using 1 L of final neutral media. The solution of 0.1N HCl (pH of 1.2) with a formulation present was stirred at 50 rpm for 2 hours and then the solution was converted to 0.2M Phosphate Buffer (pH of 6.8) and stirring continued up to 12 hours. At times of 60, 120, 125, 135, 150, 165, 180, 210, 240, 300, 360, 480, and 720 minutes, three×5 mL samples were removed and analyzed for soluble AKBA.
# [5] = Bioavailability (pharmacokinetic) study of AKBA formulations, oral gavage; format: in vivo, Sprague-Dawley rats; settings: rat, dose equivalent to 50 mg/kg AKBA, * statistically significant
# Method: A study was performed to evaluate the pharmacokinetic parameters of AKBA compositions. For the study, adult male Sprague-Dawley rats (275-300 grams, 63-67 days) were caged individually and maintained on a normal rodent chow diet with free access to water. Rats were randomly divided into groups of 4 rats with each group receiving one formulation. Prior to dosing, each formulation was reconstituted in deionised water. The formulations were administered as a dose equivalent to 50 mg/kg AKBA. Each formulation was delivered by 1 mL oral gavage via a pharyngeal tube such that each group of 4 rats received a different formulation. Each formulation was administered to dose AKBA at a concentration of 15 mg/l mL to prevent spontaneous release through the pyloric sphincter (volumetric dose below 4 mL/kg body weight).
# The administered formulations were: […]
# The catheters of the rats were flushed daily with 300 μL of 50 U/mL heparinized normal saline. Blood samples of approximately 300 μL were collected from the jugular vein catheter at 0, 0.5, 1, 1.5, 2, 2.5, 3, 3.5, 4, 4.5, 5, 5.5, 6 and 8 hours after dosing using a 1 mL syringe and attached […] needle. Blood was slowly extracted into the needle through the catheter. The blood samples were placed into preheparinized 1.5 mL microcentrifuge tubes. Withdrawn blood was replaced with equal volumes of heparinized saline by injecting through the jugular vein catheter. The bioavailability of the API was then determined by monitoring the API levels in the blood over time.
smiles,measurement,setting,value
"CC(=O)O[C@@H]1CC[C@@]2(C)[C@@H](CC[C@]3(C)[C@@H]2C(=O)C=C2[C@@H]4[C@@H](C)[C@H](C)CC[C@]4(C)CC[C@]23C)[C@@]1(C)C(=O)O [AKBA, acetyl-11-keto-β-boswellic acid]","AKBA solubility, mcg/mL Buffer (Material - Surfactants)",[1],0.01 µg/mL
same,"AKBA solubility, mcg/mL Buffer (Material - Polymer Carriers)",[2],7.27 µg/mL
same,"AKBA solubility, mcg/mL Buffer (Material - Combination of Surfactants and Polymer Carriers)",[3],8.46 µg/mL
same,peak solubility,[4],about 2 μg/ml
same,Average of AUC,[5],0.71* ± 0.24 μg-hr/mL
same,Average of Cmax,[5],0.35* ± 0.12 μg/mL
same,Average of Tmax,[5],4.75* ± 1.55 hours
same,Average of t1/2,[5],2.30 ± 1.43 h
